Data from US11180522B2, “Disulfide-linked reversible terminators” (Centrillion Technology Holdings Corporation, priority 2015, dated 2021).

How the values were obtained:
Bst polymerase [1] = settings: incubation with 100 mM TCEP pH9.0, 65° C., 30 minutes
Method: Primer extension: For reactions with CENT1 enzyme, the enzyme was boiled for 5 minutes at 95° C. before use. 40 uL of hybridized beads were resuspended in 22.5 uL of reaction mixture (40 mM Tris-HCl pH8.8, 20 mM ammonium sulfate, 20 mM KCl, 0.2% Triton X-100, 2 mM MgSO4, 1.5 ug CENT1). Reactions were pre-warmed to 45° C. for one minute before adding 2.5 uL of 20 uM nucleotide (for a final concentration of 2 uM). After one minute of incorporation, reactions were quenched with 40 μL RB. Beads were washed with 40 μL RB and either resuspended in a new reaction mixture for further incorporation events or SP_T was eluted with 0.1 N NaOH for 10 minutes at room temperature then neutralized with 1.5 uL Tris-HCl pH8.0. For reactions with Bst large fragment (NEB), 40 uL of hybridized beads were resuspended in 22.5 uL of reaction mixture (40 mM Tris-HCl pH8.8, 20 mM ammonium sulfate, 20 mM KCl, 0.2% Triton X-100, 2 mM MgSO4, 40 U Bst). Reactions were pre-warmed to 37° C. for one minute before adding 2.5 uL of 1 mM dNTPs (NEB) (for a final concentration of 100 uM). After five minutes at 37° C., reactions were quenched with 40 μL RB. Beads were washed with 40 μL RB and SP_T was eluted with 0.1N NaOH for 10 minutes at room temperature then neutralized with 1.5 uL Tris-HCl pH8.0.
Cleavage of Reversible Terminators: After incorporation of reversible terminators, beads were resuspended in 100 mM TCEP pH9.0 (Gold Bio) and incubated at 65° C. for 30 minutes before quenching with 100 μL RB. Beads were washed with 40 μL RB and either resuspended in a new reaction mixture for further incorporation events or SP_T was eluted with 0.1N NaOH for 10 minutes at room temperature then neutralized with 1.5 uL Tris-HCl pH8.0.

Bst polymerase [2] = settings: "runaway" reaction with Bst polymerase, 100 uM dNTPs, 37° C., before TCEP treatment
Method: For reactions with Bst large fragment (NEB), 40 uL of hybridized beads were resuspended in 22.5 uL of reaction mixture (40 mM Tris-HCl pH8.8, 20 mM ammonium sulfate, 20 mM KCl, 0.2% Triton X-100, 2 mM MgSO4, 40 U Bst). Reactions were pre-warmed to 37° C. for one minute before adding 2.5 uL of 1 mM dNTPs (NEB) (for a final concentration of 100 uM). After five minutes at 37° C., reactions were quenched with 40 μL RB. Beads were washed with 40 μL RB and SP_T was eluted with 0.1N NaOH for 10 minutes at room temperature then neutralized with 1.5 uL Tris-HCl pH8.0.
Denaturing PAGE: An equal volume of 2×TBE-Urea Sample Buffer (Novex, Thermo Fisher) was added to samples before heat-denaturation for five minutes at 85° C. 10 μL sample and a 10 bp ladder (TrackIt, Invitrogen) on a 15% TBE-Urea PAGE gel (Novex, Thermo Fisher) in 1×TBE for two hours at 160V. Gels were imaged for fluorescence before staining and again after staining with SYBR Gold (Thermo) on an AlphaImager 3400.

DNA polymerase CENT1 = experiment: Primer extension assay with DNA polymerase CENT1; assay type: biochemical; settings: 2 uM nucleotide, 45° C., one minute, denaturing PAGE
Method: (§1) Oligo Preparation: Oligos were purchased from IDT and stored at 500 uM in nuclease-free water: A biotinylated target sequence (Biot_Primer1_Capt, 5′-/5Biosg/[…] TTTCAG-3′ (SEQ ID NO: 1)) and a sequencing primer (SP_T, 5′-[…]-3′ (SEQ ID NO: 2)). 8 nmol of the biotinylated template sequence was conjugated to streptavidin-coated magnetic beads (T1 Dynabeads, Invitrogen) for one hour at room temperature in a solution containing 1M NaCl, 10 mM Tris-HCl pH7.5, 1 mM EDTA. Beads were washed three times with wash buffer at 60° C. (0.64×SSC, 0.016% SDS) to remove unbound primer and stored in 800 μL reaction binding buffer, RB, (1M NaCl, 25 mM Tris-HCl pH7.5, 0.01% TWEEN20) at 4° C. To hybridize the sequencing primer to the template, 100 uL of conjugated beads were incubated with a saturating amount of SP_T (2.5 nmol) in 200 μL RB at 70° C. for five minutes, 55° C. for 15 minutes, then 25° C. for 5 minutes. Hybridized beads were stored in 360 uL RB at room temperature.

[3] = tested on: enhanced DNA polymerase (EDP); experiment: Primer extension assay with enhanced DNA polymerase (EDP); assay type: biochemical; settings: denaturing PAGE, FIG. 12
Method: as §1

| Molecule | De-blocking (removal of 3′-azidomethyl cap, extension resumes) (Bst polymerase [1]) | Blocking of further extension after terminator incorporation (Bst polymerase [2]) | Primer extension (incorporation of the terminator into the growing DNA chain) catalyzed by CENT1 (DNA polymerase CENT1) | Primer extension (incorporation of the terminator) catalyzed by EDP [3] |
| --- | --- | --- | --- | --- |
| [N-]=[N+]=NCOC1C[C@H](n2cc(C#CCNC(=O)OCCSSCCNC(=O)c3ccc(-c4c5ccc(=O)cc-5oc5cc(O)ccc45)c(C(=O)O)c3)c(=O)[nH]c2=O)O[C@@H]1COP(=O)(O)OP(=O)(O)OP(=O)(O)O (stereo partly drawn) [compound 33, 3′-O-azidomethyl-5-(Fluorescein-dithiolinker-cabamate)-2′-deoxyuridinetriphosphate] | De-blocking was accomplished | Blocking of further extension after terminator incorporation is observed | extension was catalyzed |  |
| CC(C)(C)OC(=O)NCCSSCCOC(=O)NCC#Cc1cn([C@H]2CC(OCN=[N+]=[N-])[C@@H](COP(=O)(O)OP(=O)(O)OP(=O)(O)O)O2)c(=O)[nH]c1=O (stereo partly drawn) [compound 31] | De-blocking was accomplished |  | extension was catalyzed | extension was catalyzed |
| 3′-O-azidomethyl-5-(Alexa530-dithiolinker-carbamate)-dUTP [compound 34] | De-blocking was accomplished | Blocking of further extension after terminator incorporation is observed | extension was catalyzed |  |
